Laboratory results taken from US20250059174A1, “Pharmaceutical Compounds and Compositions as C-Kit Kinase Inhibitors” (Enanta Pharmaceuticals, Inc., priority 2023, published 2025).

How the values were obtained:
[1] = molecular target: Recombinant human c-KIT kinase (Homo sapiens (Human), UniProt P10721); test: c-KIT kinase chemiluminescence assay (ADP-Glo); type: biochemical; conditions: ATP 50 μM
Procedure, shortened: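 Recombinant human c-KIT preincubated 30 min at RT in 40 mM Tris pH 7.5, 20 mM MgCl2, 0.1 mg/mL BSA, 50 μM DTT, then reacted 2 h at RT with ATP and polyEY substrate. ADP-Glo luminescence readout; activity normalized to high/low controls, IC50 and Hill coefficient from inhibitor-versus-normalized-response fit.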

M-07e cells = test: M-07e cellular assay (SCF-mediated cell proliferation); type: cell-based; conditions: Homo sapiens, 72 hours, CellTiter Glo
Procedure, shortened: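 EC50 values reflect inhibition of SCF-driven proliferation, with SCF at EC90 and a 72 h compound exposure, measured as CellTiter Glo luminescence. Growth is scaled between no-SCF (0%) and untreated (100%) wells.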

Recombinant human c-KIT kinase, sequence (P10721 26-976): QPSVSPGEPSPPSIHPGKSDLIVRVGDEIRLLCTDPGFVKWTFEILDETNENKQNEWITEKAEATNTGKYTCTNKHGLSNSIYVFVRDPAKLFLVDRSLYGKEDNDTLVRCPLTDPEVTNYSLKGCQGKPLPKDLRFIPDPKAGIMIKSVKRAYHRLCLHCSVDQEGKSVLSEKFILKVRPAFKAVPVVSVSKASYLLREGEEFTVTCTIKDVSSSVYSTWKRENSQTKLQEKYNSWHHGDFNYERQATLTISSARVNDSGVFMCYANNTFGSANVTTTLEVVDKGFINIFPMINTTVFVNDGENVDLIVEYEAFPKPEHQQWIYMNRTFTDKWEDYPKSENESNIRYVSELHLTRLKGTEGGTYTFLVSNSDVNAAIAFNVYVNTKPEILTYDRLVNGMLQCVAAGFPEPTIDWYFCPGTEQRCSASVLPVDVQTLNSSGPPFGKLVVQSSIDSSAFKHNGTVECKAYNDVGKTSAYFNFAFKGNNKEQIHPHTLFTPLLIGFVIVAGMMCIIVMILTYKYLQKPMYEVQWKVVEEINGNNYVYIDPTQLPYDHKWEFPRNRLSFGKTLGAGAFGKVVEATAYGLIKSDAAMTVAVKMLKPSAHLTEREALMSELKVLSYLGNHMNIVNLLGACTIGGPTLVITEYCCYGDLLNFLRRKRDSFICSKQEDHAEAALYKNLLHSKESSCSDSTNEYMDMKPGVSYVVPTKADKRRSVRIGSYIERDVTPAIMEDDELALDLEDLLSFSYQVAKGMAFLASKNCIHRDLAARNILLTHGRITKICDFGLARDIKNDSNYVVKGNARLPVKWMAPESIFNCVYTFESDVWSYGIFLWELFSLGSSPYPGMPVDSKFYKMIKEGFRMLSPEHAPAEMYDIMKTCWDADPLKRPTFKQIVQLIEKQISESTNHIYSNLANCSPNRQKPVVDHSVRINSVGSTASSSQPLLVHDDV

Compound	IC50 [1] [nM]	EC50 (M-07e cells) [nM]
COC(=O)N1CC(Cc2nc(-c3ccc(C)c(NC(=O)c4cnn5ccc(N6CC7(COC7)C6)cc45)c3)no2)C1 [Example 281-29]	100 to 1000	100 to 1000
O=C(Nc1cc(-c2noc(C3CC(F)(F)C3)n2)ccc1Cl)c1cnn2ccc(N3CC4(C3)CC(O)(C(F)F)C4)cc12 [Example 281-30]	< 100	< 100
Cc1ccc(-c2noc([C@H]3C[C@](O)(C(F)(F)F)C3)n2)cc1NC(=O)c1cnn2ccc(N3CC4(COC4)C3)cc12 [Example 281-31]	< 100	< 100
Cc1ccc(-c2noc(C3CN(C(=O)[C@H]4C[C@@H]4F)C3)n2)cc1NC(=O)c1cnn2ccc(N3CC4(COC4)C3)cc12 [Example 281-32]	100 to 1000	100 to 1000
Cc1ccc(-c2noc(C3CN(C(=O)C4(F)CC4)C3)n2)cc1NC(=O)c1cnn2ccc(N3CC4(COC4)C3)cc12 [Example 281-33]	100 to 1000	100 to 1000
Cc1ccc(-c2noc(C3CN(C(=O)[C@H]4C[C@@H]4F)C3)n2)cc1NC(=O)c1cnn2ccc(N3CC4(C3)CC(O)(C(F)F)C4)cc12 [Example 281-34]	100 to 1000	100 to 1000
Cc1ccc(-c2noc(C3CN(C(=O)C4(F)CC4)C3)n2)cc1NC(=O)c1cnn2ccc(N3CC4(C3)CC(O)(C(F)F)C4)cc12 [Example 281-35]	< 100	< 100
Cc1ncc(-c2noc([C@H]3C[C@@](C)(O)C3)n2)cc1NC(=O)c1cnn2ccc(N3CC4(C3)CC(O)(C(F)F)C4)cc12 [Example 281-36]	< 100	100 to 1000
Cc1ncc(-c2noc([C@H]3C[C@](O)(C(F)F)C3)n2)cc1NC(=O)c1cnn2ccc(N3CC4(C3)CC(O)(C(F)F)C4)cc12 [Example 281-37]	100 to 1000	100 to 1000
Cc1ncc(-c2noc([C@H]3C[C@](O)(C(F)(F)F)C3)n2)cc1NC(=O)c1cnn2ccc(N3CC4(C3)CC(O)(C(F)F)C4)cc12 [Example 281-38]	100 to 1000	< 100
Cc1ccc(-c2noc(C3CN(CC(F)(F)F)C3)n2)cc1NC(=O)c1cnn2ccc(N3CC4(C3)CC(O)(C(F)F)C4)cc12 [Example 281-39]	< 100	< 100
Cc1cc(F)c(-c2noc([C@H]3C[C@@H]3F)n2)cc1NC(=O)c1cnn2ccc(N3CC4(COC4)C3)cc12 [Example 281-42]	< 100	< 100
COC(=O)N1CC(c2nc(-c3ccc(C)c(NC(=O)c4cnn5ccc(N6CC7(COC7)C6)cc45)c3)no2)C1 [Example 281-43]	< 100	< 100
Cc1ncc(-c2noc([C@H]3C[C@@H](OC(F)(F)F)C3)n2)cc1NC(=O)c1cnn2ccc(N3CC4(C3)CC(O)(C(F)F)C4)cc12 [Example 281-45]	< 100	< 100
Cc1ccc(-c2noc(C3CN(C(=O)C4CC4)C3)n2)cc1NC(=O)c1cnn2ccc(N3CC4(COC4)C3)cc12 [Example 281-46]	100 to 1000	100 to 1000
Cc1ccc(-c2noc(C3CN(C(=O)C(F)(F)F)C3)n2)cc1NC(=O)c1cnn2ccc(N3CC4(COC4)C3)cc12 [Example 281-47]	100 to 1000	> 1000
COC(=O)N1CC(c2nc(-c3cc(NC(=O)c4cnn5ccc(N6CC7(COC7)C6)cc45)c(C)cc3F)no2)C1 [Example 281-48]	< 100	100 to 1000
Cc1ccc(-c2noc(C3CN(C(=O)C4CC(F)(F)C4)C3)n2)cc1NC(=O)c1cnn2ccc(N3CC4(COC4)C3)cc12 [Example 281-49]	> 1000	> 1000
Cc1ccc(-c2noc(C3CN(C(=O)N(C)C4CC4)C3)n2)cc1NC(=O)c1cnn2ccc(N3CC4(COC4)C3)cc12 [Example 281-50]	100 to 1000	100 to 1000
Cc1ccc(-c2noc(C3CN(C(=O)N(C)C)C3)n2)cc1NC(=O)c1cnn2ccc(N3CC4(COC4)C3)cc12 [Example 281-51]	> 1000	> 1000
COC(=O)N1CC(c2nc(-c3cc(NC(=O)c4cnn5ccc(N6CC7(C6)CC(O)(C(F)F)C7)cc45)c(C)cc3F)no2)C1 [Example 281-52]	< 100	< 100
COC(=O)N1CC(c2nc(-c3ccc(C)c(NC(=O)c4cnn5ccc(N6CC7(C6)CC(O)(C(F)F)C7)cc45)c3)no2)C1 [Example 281-53]	< 100	< 100
Cc1c(F)cc(-c2noc([C@H]3C[C@@H]3F)n2)cc1NC(=O)c1cnn2ccc(N3CC4(COC4)C3)cc12 [Example 281-54]	< 100	< 100
CC(=O)N1CCC(c2nc(-c3cnc(C)c(NC(=O)c4cnn5ccc(N6CC7(C6)CC(O)(C(F)F)C7)cc45)c3)no2)C1 (stereo not shown) [Example 281-55]	100 to 1000	> 1000
Cc1ccc(-c2noc(C3CN(C(=O)NC4CC4)C3)n2)cc1NC(=O)c1cnn2ccc(N3CC4(COC4)C3)cc12 [Example 281-56]	> 1000	> 1000

Compound	IC50 [1] [nM]	EC50 (M-07e cells) [nM]
Cc1cc(F)c(-c2noc([C@H]3C[C@@H](OC(F)(F)F)C3)n2)cc1NC(=O)c1cnn2ccc(N3CC4(COC4)C3)cc12 [Example 281-57]	< 100	100 to 1000
Cc1cc(F)c(-c2noc([C@H]3C[C@@H]3C(F)F)n2)cc1NC(=O)c1cnn2ccc(N3CC4(COC4)C3)cc12 [Example 281-59]	< 100	100 to 1000
Cc1ncc(-c2noc(C3C[C@@H]3C(F)F)n2)cc1NC(=O)c1cnn2ccc(N3CC4(COC4)C3)cc12 (stereo partly shown) [Example 281-60]	100 to 1000	100 to 1000
Cc1ccc(-c2noc(C3CN(C(=O)N4CC(F)(F)C4)C3)n2)cc1NC(=O)c1cnn2ccc(N3CC4(COC4)C3)cc12 [Example 281-61]	> 1000	100 to 1000
Cc1ncc(-c2noc([C@H]3C[C@@H](C(F)(F)F)C3)n2)cc1NC(=O)c1cnn2ccc(N3CC4(C3)CC(O)(C(F)F)C4)cc12 [Example 281-62]	< 100	< 100
Cc1ncc(-c2noc([C@H]3C[C@@H]3F)n2)cc1NC(=O)c1cnn2ccc(N3CC4(C3)CC(O)(C(F)F)C4)cc12 [Example 281-63]	100 to 1000	< 100
Cc1ncc(-c2noc([C@H]3C[C@@H]3C(F)F)n2)cc1NC(=O)c1cnn2ccc(N3CC4(C3)CC(O)(C(F)F)C4)cc12 [Example 281-64]	< 100	< 100
Cc1ccc(-c2noc([C@H]3C[C@@H]3F)n2)c(F)c1NC(=O)c1cnn2ccc(N3CC4(COC4)C3)cc12 [Example 281-65]	< 100	< 100
Cc1ncc(-c2noc([C@H]3C[C@H](C(F)(F)F)C3)n2)cc1NC(=O)c1cnn2ccc(N3CC4(COC4)C3)cc12 [Example 281-66]	100 to 1000	< 100
Cc1ncc(-c2noc(C3CC(F)(F)C3)n2)cc1NC(=O)c1cnn2ccc(N3CC4(COC4)C3)cc12 [Example 281-67]	100 to 1000	< 100
Cc1ncc(-c2noc([C@H]3C[C@H](C(F)(F)F)C3)n2)cc1NC(=O)c1cnn2ccc(N3CC4(C3)CC(O)(C(F)F)C4)cc12 [Example 281-68]	< 100	< 100
Cc1ncc(-c2noc(C3CC(F)(F)C3)n2)cc1NC(=O)c1cnn2ccc(N3CC4(C3)CC(O)(C(F)F)C4)cc12 [Example 281-69]	100 to 1000	< 100
Cc1nnc(N2CC(c3nc(-c4cnc(C)c(NC(=O)c5cnn6ccc(N7CC8(C7)CC(O)(C(F)F)C8)cc56)c4)no3)C2)o1 [Example 281-70]	> 1000	> 1000
Cc1nnc(N2CC(c3nc(-c4cnc(C)c(NC(=O)c5cnn6ccc(N7CC8(COC8)C7)cc56)c4)no3)C2)o1 [Example 281-71]	> 1000	> 1000
CC(=O)N1CCC(c2nc(-c3cnc(C)c(NC(=O)c4cnn5ccc(N6CC7(C6)CC(O)(C(F)F)C7)cc45)c3)no2)CC1 [Example 281-72]	> 1000	> 1000
CC(=O)N1CC2(CC(c3nc(-c4cnc(C)c(NC(=O)c5cnn6ccc(N7CC8(C7)CC(O)(C(F)F)C8)cc56)c4)no3)C2)C1 [Example 281-73]	> 1000	> 1000
CC(=O)N1CCC(c2nc(-c3cnc(C)c(NC(=O)c4cnn5ccc(N6CC7(COC7)C6)cc45)c3)no2)C1 (stereo not shown) [Example 281-74]	> 1000	> 1000
CC(=O)N1CCC(c2nc(-c3cnc(C)c(NC(=O)c4cnn5ccc(N6CC7(COC7)C6)cc45)c3)no2)CC1 [Example 281-75]	> 1000	> 1000
CC(=O)N1CC2(CC(c3nc(-c4cnc(C)c(NC(=O)c5cnn6ccc(N7CC8(COC8)C7)cc56)c4)no3)C2)C1 [Example 281-76]	> 1000	> 1000
COC(=O)N1CC(c2nc(-c3cnc(C)c(NC(=O)c4cnn5ccc(N6CC7(COC7)C6)cc45)c3)no2)C1 [Example 281-77]	100 to 1000	100 to 1000
COC(=O)N1CC(c2nc(-c3cnc(C)c(NC(=O)c4cnn5ccc(N6CC7(C6)CC(O)(C(F)F)C7)cc45)c3)no2)C1 [Example 281-78]	< 100	< 100
Cc1ncc(-c2noc(C3CN(C(=O)[C@H]4C[C@@H]4F)C3)n2)cc1NC(=O)c1cnn2ccc(N3CC4(C3)CC(O)(C(F)F)C4)cc12 [Example 281-79]	> 1000	> 1000
Cc1ncc(-c2noc(C3CN(C(=O)[C@H]4C[C@@H]4F)C3)n2)cc1NC(=O)c1cnn2ccc(N3CC4(COC4)C3)cc12 [Example 281-80]	> 1000	> 1000
Cc1ccc(-c2noc(N3CC(F)(F)C3)n2)cc1NC(=O)c1cnn2ccc(N3CC4(COC4)C3)cc12 [Example 281-81]	100 to 1000	< 100
Cc1ccc(-c2noc(N3CC(O)(C(F)(F)F)C3)n2)cc1NC(=O)c1cnn2ccc(N3CC4(COC4)C3)cc12 [Example 281-82]	< 100	< 100
